Results taken from US20140357713A1, “ANTIMICROBIAL COMPOUNDS AND METHODS OF USE” (NexMed Holdings, Inc., priority 2012, published 2014).
Structures can show the parent of a compound that is named as a salt. Where two headings read alike, the source gives them in different places.

Assays:
pH (Table 1) = type: physicochemical
[1] = tested on: Candida albicans (ATCC 90029); test: Minimum inhibitory concentration (MIC) assay, Example 33; type: cell-based; conditions: Candida albicans
Outline: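 Broth microdilution per CLSI guidelines in RPMI 1640; inoculum set to OD530 0.08–0.13, diluted 1:50 then 1:20 to 2× strength and mixed 1:2 with 2-fold serial compound dilutions. Incubated at 35° C; MIC read per CLSI.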

[2] = tested on: Escherichia coli (ATCC 25922); test: as above; type: cell-based; conditions: for MIC: Escherichia coli
Outline: (§1)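 Antibacterial MICs come from CLSI-guided broth microdilution in CAMHB at 35° C, using a McFarland 0.5-standardized inoculum diluted 1:100 before 1:2 addition to drug wells.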

[3] = tested on: Pseudomonas aeruginosa (ATCC 27853); test: as above; type: cell-based; conditions: Pseudomonas aeruginosa
Outline: as §1

[4] = tested on: Staphulococcus aureus (ATCC 29213); test: as above; type: cell-based, Staphylococcus aureus; conditions: Staphylococcus aureus
Outline: as §1

[5] = tested on: Aspergillus niger (CMCC 98003); test: as above; type: cell-based; conditions: Aspergillus niger
Outline: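 Broth microdilution MIC per CLSI guidelines in RPMI 1640 with serial 2-fold compound dilutions. Spore suspension from sporulating colonies adjusted to OD530 0.09-0.13, diluted 1:50 as 2× inoculum and added 1:2 to drug wells; plates incubated at 35 °C and MIC read per CLSI.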

[6] = Solubility (Sol., Table 1); type: physicochemical
[7] = tested on: Escherichia coli (ATCC 25922); test: Time kill study, Example 33 (0 to 5 min); type: cell-based; conditions: 1×MIC
Outline: (§2)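 Performed per CLSI guidelines. Strain suspensions prepared as for MIC testing were mixed with compound solution in equal volume; samples taken at 0 min, 30 sec, 1 min and 5 mins were diluted in test medium, streaked on agar, and colonies counted after 24 to 48 hrs to give viable counts in Log10 CFU/mL.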

[8] = tested on: Pseudomonas aeruginosa (ATCC 27853); test: Time kill study, Example 33 (0 to 5 min); type: cell-based; conditions: 1×MIC
Outline: as §2

[9] = tested on: Staphylococcus aureus (ATCC 29213); test: Time kill study, Example 33 (0 to 5 min); type: cell-based; conditions: 1×MIC
Outline: as §2

[10] = tested on: Aspergillus niger (CMCC 98003); test: Time kill study, Example 33 (0 to 5 min); type: cell-based; conditions: 1×MIC
Protocol: Thirty compounds were tested for antimicrobial activity using standard procedures and standard strains for both the minimum inhibitory concentration (MIC) assay and a time kill study. Both the MIC assay and the time kill study were performed according to Clinical and Laboratory Standards Institute (CLSI) guidelines. Three bacteria strains, Escherichia coli (ATCC 25922), Pseudomonas aeruginosa (ATCC 27853), Staphulococcus aureus (ATCC 29213), and two fungus strains, Candida albicans (ATCC 90029) and Aspergillus niger (CMCC 98003), were used in the experiments.
The viable counts in Log10 CFU/mL at each time point were recorded.
Time kill studies. Strain suspensions were prepared as described above for the MIC test, and strain suspensions and compound solutions were mixed in the same volume. Samples were removed at specified times including 0 min, 30 sec, 1 min and 5 mins, were diluted in the test medium and streaked on agar. Colonies were counted after 24 to 48 hrs of incubation.
The MIC values for thirty compounds against Escherichia coli, Pseudomonas aeruginosa, Staphulococcus aureus, Candida albicans, and Aspergillus niger were recorded and are presented in Table 3 and Table 4.

[11] = tested on: Candida albicans (ATCC 90029); test: Time kill study, Example 33 (0 to 5 min); type: cell-based; conditions: 1×MIC
Outline: as §2

[12] = ATCC90029, Table 19 summary, read-out: MIC
[13] = ATCC90029, n = 1, read-out: MIC Candida albicans
[14] = ATCC90029, n = 2, read-out: MIC Candida albicans
[15] = ATCC25922, Table 19 summary of Example 33 and Example 35, read-out: MIC
[16] = ATCC25922, n = 1, read-out: MIC E. coli
[17] = ATCC25922, n = 2, read-out: MIC E. coli
[18] = ATCC27853, Table 19 summary, read-out: MIC
[19] = ATCC27853, n = 1, read-out: MIC P. aeruginosa
[20] = ATCC27853, n = 2, read-out: MIC P. aeruginosa
[21] = ATCC29213, Table 19 summary, read-out: MIC
[22] = ATCC29213, n = 1, read-out: MIC S. aureus
[23] = ATCC29213, n = 2, read-out: MIC S. aureus
[24] = CMCC98003, Table 19 summary, read-out: MIC
[25] = CMCC98003, n = 1, read-out: MIC Aspergillus niger
[26] = CMCC98003, n = 2, read-out: MIC Aspergillus niger
[27] = 1 min, listed as Nex-88, hydrochloride

CCCCCCCCCCCCOC(=O)C(C)NC(C)C.Cl (stereo not shown) [Nex-60, Dodecyl 2-(isopropylamino)propanoate hydrochloride]
pH (pH (Table 1)): 2.04 | MIC [1, 12]: 12.5 mg/mL | MIC [1, 13]: 12.5 mg/mL | MIC [1, 14]: 12.5 mg/mL | MIC [2, 15]: 3130 µg/mL | MIC [2, 16]: 3130 µg/mL | MIC [2, 17]: 3130 µg/mL | MIC [3, 18]: 6250 µg/mL | MIC [3, 19]: 6250 µg/mL | MIC [3, 20]: 6250 µg/mL | MIC [4, 21]: 1560 µg/mL | MIC [4, 22]: 1560 µg/mL | MIC [4, 23]: 1560 µg/mL | MIC [5, 24]: > 12500 µg/mL | MIC [5, 25]: > 12500 µg/mL | MIC [5, 26]: > 12500 µg/mL | Sol. [6]: 46% | Viable counts, Escherichia coli time kill study ([7]; 0.5 min): <4.0 Log10 CFU/mL | Viable counts, Escherichia coli time kill study ([7]; 1 min): 3.7 Log10 CFU/mL | Viable counts, Escherichia coli time kill study ([7]; 5 min): <3.52 Log10 CFU/mL | Viable counts, Escherichia coli time kill study ([7]; time 0): 5.88 Log10 CFU/mL | Viable counts, Pseudomonas aeruginosa time kill study ([8]; 0.5 min): 4.6 Log10 CFU/mL | Viable counts, Pseudomonas aeruginosa time kill study ([8]; 1 min): 3.7 Log10 CFU/mL | Viable counts, Pseudomonas aeruginosa time kill study ([8]; 5 min): <3.52 Log10 CFU/mL | Viable counts, Pseudomonas aeruginosa time kill study ([8]; time 0): 5.58 Log10 CFU/mL | Viable counts, Staphylococcus aureus time kill study ([9]; 0.5 min): 6.23 Log10 CFU/mL | Viable counts, Staphylococcus aureus time kill study ([9]; 1 min): 6.25 Log10 CFU/mL | Viable counts, Staphylococcus aureus time kill study ([9]; 5 min): 6.21 Log10 CFU/mL | Viable counts, Staphylococcus aureus time kill study ([9]; time 0): 6.28 Log10 CFU/mL | melting point: 86 to 91 °C

CCCCCCCCCCCCOC(=O)C(C)NCCN(CC)CC.Cl (stereo not shown) [Nex-62, Dodecyl 2-((2-(diethylamino)ethyl)amino)propanoate dihydrochloride]
pH (pH (Table 1)): 0.73 | MIC [1, 12]: 0.00625 mg/mL | MIC [1, 13]: 0.00625 mg/mL | MIC [1, 14]: 0.00625 mg/mL | MIC [2, 15]: 100 µg/mL | MIC [2, 16]: 100 µg/mL | MIC [2, 17]: 100 µg/mL | MIC [3, 18]: 6250 µg/mL | MIC [3, 19]: 6250 µg/mL | MIC [3, 20]: 6250 µg/mL | Viable counts, Aspergillus niger time kill study ([10]; 0.5 min): 5.32 Log10 CFU/mL | Viable counts, Aspergillus niger time kill study ([10]; 1 min): 5.21 Log10 CFU/mL | Viable counts, Aspergillus niger time kill study ([10]; 5 min): 5.02 Log10 CFU/mL | Viable counts, Aspergillus niger time kill study ([10]; time 0): 5.27 Log10 CFU/mL | MIC [4, 21]: 25 µg/mL | MIC [4, 22]: 25 µg/mL | MIC [4, 23]: 25 µg/mL | MIC [5, 24]: 12.5 µg/mL | MIC [5, 25]: 12.5 µg/mL | MIC [5, 26]: 12.5 µg/mL | Sol. [6]: 48% | Viable counts, Escherichia coli time kill study ([7]; 0.5 min): 4.78 Log10 CFU/mL | Viable counts, Escherichia coli time kill study ([7]; 1 min): 5.02 Log10 CFU/mL | Viable counts, Escherichia coli time kill study ([7]; 5 min): 3.82 Log10 CFU/mL | Viable counts, Escherichia coli time kill study ([7]; time 0): 4.82 Log10 CFU/mL | Viable counts, Pseudomonas aeruginosa time kill study ([8]; 0.5 min): 4 Log10 CFU/mL | Viable counts, Pseudomonas aeruginosa time kill study ([8]; 1 min): <3.70 Log10 CFU/mL | Viable counts, Pseudomonas aeruginosa time kill study ([8]; 5 min): <3.52 Log10 CFU/mL | Viable counts, Pseudomonas aeruginosa time kill study ([8]; time 0): 5.52 Log10 CFU/mL | Viable counts, Staphylococcus aureus time kill study ([9]; 0.5 min): 6.32 Log10 CFU/mL | Viable counts, Staphylococcus aureus time kill study ([9]; 1 min): 6.35 Log10 CFU/mL | Viable counts, Staphylococcus aureus time kill study ([9]; 5 min): 6.31 Log10 CFU/mL | Viable counts, Staphylococcus aureus time kill study ([9]; time 0): 6.34 Log10 CFU/mL | Viable counts, Candida albicans time kill study ([11]; 0.5 min): 5.37 Log10 CFU/mL | Viable counts, Candida albicans time kill study ([11]; 1 min): 5.18 Log10 CFU/mL | Viable counts, Candida albicans time kill study ([11]; 5 min): 5.16 Log10 CFU/mL | Viable counts, Candida albicans time kill study ([11]; time 0): 5.12 Log10 CFU/mL

CCCCCCCCCCCCOC(=O)C(C)N(C)C (stereo not shown) [Nex-05, Dodecyl 2-(dimethylamino)propanoate hydrochloride]
pH (pH (Table 1); hydrochloride): 2.87 | MIC ([1]; ATCC90029, Table 19 summary): > 12.5 mg/mL | MIC ([1]; ATCC90029, read-out: MIC Candida albicans, n = 1): > 12.5 mg/mL | MIC ([1]; ATCC90029, read-out: MIC Candida albicans, n = 2): > 12.5 mg/mL | MIC ([2]; ATCC25922, Table 19 summary of Example 33 and Example 35): 3130 µg/mL | MIC ([2]; ATCC25922, read-out: MIC E. coli, n = 1): 3130 µg/mL | MIC ([2]; ATCC25922, read-out: MIC E. coli, n = 2): 3130 µg/mL | MIC E. coli ([2]; n = 1, listed as Nex-88, hydrochloride): 3.13 mg/mL | MIC ([3]; ATCC27853, Table 19 summary): 6250 µg/mL | MIC ([3]; ATCC27853, read-out: MIC P. aeruginosa, n = 1): 6250 µg/mL | MIC ([3]; ATCC27853, read-out: MIC P. aeruginosa, n = 2): 6250 µg/mL | MIC ([4]; ATCC29213, read-out: MIC S. aureus, n = 1): 3130 µg/mL | Viable counts, Escherichia coli time kill study ([7]; 0.5 min, hydrochloride): <4.0 Log10 CFU/mL | Viable counts, Escherichia coli time kill study ([7]; 0.5 min, listed as Nex-88, hydrochloride): <4.0 Log10 CFU/mL | Viable counts, Escherichia coli time kill study [7, 27]: <3.70 Log10 CFU/mL | Viable counts, Escherichia coli time kill study ([7]; 5 min, listed as Nex-88, hydrochloride): <3.52 Log10 CFU/mL | Viable counts, Pseudomonas aeruginosa time kill study [8, 27]: <3.70 Log10 CFU/mL | Viable counts, Pseudomonas aeruginosa time kill study ([8]; 5 min): <3.52 Log10 CFU/mL
